Data reported in patent US9376470B2, “Polypeptide having angiogenesis-inducing activity and antibacterial activity, and use thereof for medical purposes” (FunPep Inc., priority 2008, dated 2016).
Read-outs that look alike come from different tables or passages of the source. Peptide text beside a SMILES is read from it.

Legend:
[1] = system: Enterobacteria (1): Enterobacter cloacae JCM 1232; assay: Antibacterial activity, ATP assay (BacTiter-Glo); assay type: cell-based; conditions: ATP assay concentration: peptides 10, TOB 4.0, CPFX 1.0, OX 4.0, MEPM 8.0 μg/ml
Method: That is, using BacTiter-Glo Microbial Cell Viability Assay kit available from PROMEGA, the antibacterial activity of the peptides was evaluated from the viability of bacteria. […] With respect to the strains, Staphylococcus aureus ATCC29213 (S. aureus ATCC29213) as Gram-positive bacteria, or, alternatively, Pseudomonas aeruginosa (P. aeruginosa ATCC27853) as Gram-negative bacteria, was used. The bacteria were cultured in media for 3 to 4 hours, and thereafter absorbances at A600 were measured. Bacterial suspensions were diluted with Mueller-Hinton broth (MHB) according to McFarland #0.5. Each strain was added so as to attain about 0.5−1×10^5 CFU/mL (final concentration) in terms of Escherichia coli. […] A solution to which the peptides were not added was considered as a negative control, and a solution to which tobramycin (TOB) was added was considered as a positive control. […] Relative values were calculated by comparison with the negative control, and these values were regarded as the viability. […] ATP (%) of the antibacterial activity was measured in the same manner as mentioned above, and the “minimum inhibitory concentration (MIC)” was measured as follows. MIC is the lowest concentration of an agent that may inhibit the growth of a bacterium. MIC is used as a parameter for the efficacy of an antibacterial agent, for the strength of bacterial sensitivity, or the like. The bacteria can grow (proliferate) when the concentration is not higher than MIC, and cannot grow when the concentration is higher than MIC. […] (CLSI), but, in this Example, its measurement was carried out by a broth microdilution method in accordance with “M100-S17/M7-A7” (Performance Standards for Antimicrobial Susceptibility Testing; Seventeenth Informational Supplement, Vol. 27 No. 1) published by CLSI on January, 2007. That is, sensitivity test of agents was carried out using a microtiter plate or test tubes. With respect to each strain, Escherichia coli: ATCC 25922 (Escherichia coli ATCC 25922), Pseudomonas aeruginosa: ATCC 27853 (Pseudomonas aeruginosa ATCC 27853), Staphylococcus aureus: ATCC29213 (Staphylococcus aureus ATCC29213), Klebsiella pneumoniae: JCM 1662 (Klebsiella pneumoniae JCM 1662), enterobacteria (1): JCM 1232 (Enterobacter cloacae JCM 1232), enterobacteria (2): JCM 1235 (Enterobacter aerogenes JCM 1235), and Staphylococcus epidermidis: JCM 2414 (Staphylococcus epidermidis JCM 2414), were used. […] As the concentrations of the agents in ATP assay, the concentrations as described in the Tables were used.

[2] = system: human vascular endothelial cells and fibroblast cells (co-culture); assay: Lumen formation with angiogenesis kit KZ-1000 (section 7); assay type: cell-based; conditions: for The Area of Lumina (relative value, negative control as 100) / The Length of Lumina (relative value, negative control as 100): day 11
Method: Using an angiogenesis kit available from KURABO […] LTD. (Product No.: KZ-1000), lumen formation by the polypeptides was evaluated. Vascular endothelial growth factor A (VEGF-A) as a positive control, and polypeptide-free, unstimulated group as a negative control, were used.
Using a special medium for angiogenesis which was attached to the kit, each polypeptide was prepared such that the concentration thereof was respectively 0.5, 2.5 and 10 μg/mL. To a 24-well plate in which cells were plated (the cells were those obtained by co-culturing human vascular endothelial cells and fibroblast cells at an optimum concentration) which was attached to the kit, the special medium for angiogenesis containing each polypeptide was added, and the cells were cultured at 37° C. under 5% CO2. The medium was replaced with a medium containing the same additive on day 4, day 7 and day 9 of culture. On day 11 from the beginning of the culture, staining was performed using a kit for staining lumina (for CD31 antibody staining) according to the following procedure.
The media were removed, and washing was performed with Dulbecco's phosphate buffered saline (PBS(−)). Thereafter, ice-cooled 70% ethanol was added to the plate, and the cells were fixed. Each well was washed with a blocking solution (Dulbecco's phosphate buffered saline (PBS(−)) containing 1% BSA). To each well, 0.5 mL of the primary antibody for CD31 staining (mouse anti-human CD31 antibody) 4000-fold diluted with the blocking solution was added, and then the plate was incubated for 60 minutes at 37° C. After the completion of the incubation, each well was washed totally 3 times with 1 mL of the blocking solution. Then, 0.5 mL of the secondary antibody solution (goat anti-mouse IgG/alkaline phosphatase conjugate) 500-fold diluted with the blocking solution was added to each well. The plate was incubated for 60 minutes at 37° C., and thereafter each well was washed 3 times with 1 mL of distilled water. During that period, 2 tablets of BCIP/NBT were dissolved into distilled water, and the obtained solution was filtered through a filter having a pore size of […] to prepare a substrate solution. To each well, 0.5 mL of the prepared BCIP/NBT substrate solution was added, and the plate was incubated at 37° C. until the lumina turned to deep purple (typically for 5-10 minutes). After the completion of the incubation, each well was washed 3 times with 1 mL of distilled water. After washing, the washing solution was removed by aspiration, and the plate was left to stand and dry naturally. After drying, photographs of each well were taken under a microscope.
Each of the obtained images was quantified using an angiogenesis quantification software. The area and length of formed lumina observed in each visual field were measured on the basis of the scale of an angiogenesis quantification software available from KURABO […] LTD. (angiogenesis quantification software Ver 1.0), and evaluated on the basis of the ratio of the area or length of polypeptide-containing groups relative to the area or length of the negative control group.

[3] = in vitro; assay type: in vitro ADME, rat
Method: (§1) Then, the stability of five polypeptides SR-1 to 5 in serum was evaluated.
(§2) In human serum (purchased from KAC Co., Ltd.), or in rat serum obtained by collecting blood from a rat, then leaving the collected blood to stand at room temperature followed by centrifugation, each of the peptides was dissolved so as to attain a final concentration of 500 μg/mL, and the obtained solutions were left to stand at 37° C. After leaving to stand for 10 min or 30 min or 60 min, these solutions were subjected to HPLC chromatogram analysis to detect peaks of the decomposition products, and calculate the ratio of the concentration of the peptides which remained in the solutions relative to the starting concentration. In addition, the half-lives of the peptides in serum were also calculated.
(§3) HPLC chromatogram analysis conditions are as follows.

[4] = assay type: in vitro ADME; conditions: human serum, 37° C.
Method: as §1, §2, §3

CC[C@H](C)[C@H](NC(=O)[C@H](CC(C)C)NC(=O)[C@H](CCCCN)NC(=O)[C@H](CC(C)C)NC(=O)[C@@H](N)CCSC)C(=O)N[C@@H](Cc1ccccc1)C(=O)N[C@@H](CC(C)C)C(=O)N[C@@H](Cc1c[nH]cn1)C(=O)N[C@@H](CCCNC(=N)N)C(=O)N[C@@H](CC(C)C)C(=O)N[C@@H](CCCCN)C(=O)N[C@@H](CCCNC(=N)N)C(=O)N[C@@H](CCSC)C(=O)N[C@@H](CCCNC(=N)N)C(=O)N[C@@H](CCCCN)C(=O)N[C@@H](CCCNC(=N)N)C(=O)N[C@@H](CC(C)C)C(=O)N[C@@H](CCCCN)C(=O)N[C@@H](CCCNC(=N)N)C(=O)N[C@@H](CCCCN)C(=O)O [SR-1] (H-MLKLIFLHRLKRMRKRLKRK-OH; N-terminus assumed)
ATP (%) mean, Enterobacteria (1) [1]: 4.9%
ability to form lumina ([2]; 0.5, 2.5 and 10 μg/mL): high ability to form lumina
The Area of Lumina (relative value, negative control as 100) ([2]; polypeptide 0.5 μg/mL): 94.6
The Length of Lumina (relative value, negative control as 100) ([2]; polypeptide 0.5 μg/mL): 97.4
The Area of Lumina (relative value, negative control as 100) ([2]; polypeptide 10 μg/mL): 156.6
The Length of Lumina (relative value, negative control as 100) ([2]; polypeptide 10 μg/mL): 149.5
decomposition in rat serum [3]: completely decomposed
half-life ([3]; rat serum, 37° C.): 3 min
remaining at 0.5 h, 500 μg/mL ([3]; rat, serum): 0%
remaining at 1 h, 500 μg/mL ([3]; rat, serum): 0%
half-life [4]: 4 min
